Reference: ChEMBL document CHEMBL1201862, “PubChem BioAssay data set” (2004)
Structures can show the parent of a compound that is named as a salt. Activity calls are given as the source filed them.

Key:
[1] = tested on: Streptococcus sp. 'group A'; experiment: growth inhibition of control SK(-) GAS strain, dose response, counter-screen for streptokinase expression inhibitor project, luminescence, kanamycin, BacTiterGlo, confirmation (AID 1900); format: functional, organism-based
[2] = microbe, parasite or virus in culture; format: functional; settings: Mycobacterium tuberculosis
[3] = tested on: Streptococcus; experiment: Group A Streptococcus viability loss, dose response, counter-screen for streptokinase expression inhibitor project, luminescence, BacTiterGlo (AID 1915); format: functional, organism-based;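 also: potency for reduction of bacterial viability or growth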
[4] = THP-1 cell cytotoxicity, dose response, cytotoxicity control for non-replicating M. tuberculosis project (AID 489025); format: functional
[5] = Vero E6 cell cytotoxicity, dose response, cytotoxicity control for non-replicating M. tuberculosis project, secondary assay (AID 492998); format: functional, VeroE6; settings: Vero C1008
[6] = cells; format: functional
[7] = tested on: Vero; experiment: cells; format: functional, cell-based; settings: Chlorocebus sabaeus
[8] = tested on: Vero; experiment: cells; format: functional; settings: Chlorocebus sabaeus
[9] = target: Protein Wnt-3a (Mus musculus, UniProt P27467); experiment: Wnt3a-driven reporter signaling inhibition, dose response, selectivity assay for Gli-SUFU antagonist project, Wnt-LIGHT cells, luminescence (AID 651570); format: functional; settings: read-out: IC50_Mean;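 also: Wnt-LIGHT reporter cells stimulated with conditioned medium from Wnt3a-producing cells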
Sequence of Protein Wnt-3a (P27467 whole entry): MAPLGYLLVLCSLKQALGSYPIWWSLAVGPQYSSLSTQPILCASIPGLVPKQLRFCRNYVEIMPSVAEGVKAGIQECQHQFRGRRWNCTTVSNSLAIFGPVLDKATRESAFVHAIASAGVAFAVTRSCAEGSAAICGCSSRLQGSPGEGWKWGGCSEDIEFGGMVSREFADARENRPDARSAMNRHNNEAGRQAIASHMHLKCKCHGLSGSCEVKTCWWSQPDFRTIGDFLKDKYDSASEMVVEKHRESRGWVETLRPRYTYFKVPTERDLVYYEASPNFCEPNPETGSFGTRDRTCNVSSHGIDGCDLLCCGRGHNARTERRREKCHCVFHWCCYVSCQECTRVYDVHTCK

[10] = target: 26S proteasome non-ATPase regulatory subunit 14 (Homo sapiens, UniProt O00487); experiment: inhibition of proteasome subunit RPN11 – biochemical, fluorescence polarization, uHTS hits, confirmation (AID 602368); format: functional
Sequence of 26S proteasome non-ATPase regulatory subunit 14 (O00487 whole entry): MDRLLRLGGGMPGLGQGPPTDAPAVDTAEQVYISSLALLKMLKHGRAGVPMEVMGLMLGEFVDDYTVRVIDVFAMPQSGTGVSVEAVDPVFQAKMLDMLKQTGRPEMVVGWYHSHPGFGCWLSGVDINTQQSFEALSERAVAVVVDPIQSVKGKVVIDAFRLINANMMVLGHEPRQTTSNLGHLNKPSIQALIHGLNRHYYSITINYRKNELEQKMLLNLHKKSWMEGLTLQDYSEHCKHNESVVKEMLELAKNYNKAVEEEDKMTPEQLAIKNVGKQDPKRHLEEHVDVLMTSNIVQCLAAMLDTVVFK

[11] = target: 72 kDa type IV collagenase (Homo sapiens, UniProt P08253); experiment: Dose Response validation of uHTS RPN11 inhibitor hits using a MMP-2 Fluorescence assay.; format: functional
Sequence of 72 kDa type IV collagenase (P08253 whole entry): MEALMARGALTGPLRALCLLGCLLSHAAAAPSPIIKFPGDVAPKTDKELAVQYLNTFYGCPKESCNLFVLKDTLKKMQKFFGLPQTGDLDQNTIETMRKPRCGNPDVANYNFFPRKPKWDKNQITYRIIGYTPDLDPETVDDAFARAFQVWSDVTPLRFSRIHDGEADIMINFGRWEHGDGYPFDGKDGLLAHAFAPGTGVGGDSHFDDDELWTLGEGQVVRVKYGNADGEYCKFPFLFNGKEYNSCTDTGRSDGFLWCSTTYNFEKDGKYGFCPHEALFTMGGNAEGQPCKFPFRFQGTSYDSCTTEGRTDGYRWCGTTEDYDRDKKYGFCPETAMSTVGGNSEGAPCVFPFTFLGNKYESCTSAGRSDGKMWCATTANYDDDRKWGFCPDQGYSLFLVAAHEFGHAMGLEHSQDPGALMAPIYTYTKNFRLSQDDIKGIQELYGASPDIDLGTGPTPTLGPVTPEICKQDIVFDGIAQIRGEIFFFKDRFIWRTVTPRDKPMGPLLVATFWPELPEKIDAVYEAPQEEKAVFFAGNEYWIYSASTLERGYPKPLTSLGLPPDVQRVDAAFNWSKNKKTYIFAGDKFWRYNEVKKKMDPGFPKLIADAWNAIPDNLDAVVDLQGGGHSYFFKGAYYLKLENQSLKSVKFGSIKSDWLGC

[12] = target: Prothrombin (Bos taurus, UniProt P00735); experiment: thrombin inhibition, dose response, biochemical, fluorescence polarization, uHTS hits (AID 602369); format: functional
[13] = tested on: HEK293; experiment: cells; format: functional, cell-based; settings: Homo sapiens
[14] = target: T1, Nuclear receptor subfamily 0 group B member 1 (Homo sapiens, UniProt P51843); experiment: Luminescence-based cell-based high throughput dose response assay for inhibitors of the orphan nuclear receptor subfamily 0, group B, member 1 (DAX1; NR0B1). [Related pubchem assays (depositor defined):AID504766, AID504790]; format: functional
T1 sequence (P51843 whole entry): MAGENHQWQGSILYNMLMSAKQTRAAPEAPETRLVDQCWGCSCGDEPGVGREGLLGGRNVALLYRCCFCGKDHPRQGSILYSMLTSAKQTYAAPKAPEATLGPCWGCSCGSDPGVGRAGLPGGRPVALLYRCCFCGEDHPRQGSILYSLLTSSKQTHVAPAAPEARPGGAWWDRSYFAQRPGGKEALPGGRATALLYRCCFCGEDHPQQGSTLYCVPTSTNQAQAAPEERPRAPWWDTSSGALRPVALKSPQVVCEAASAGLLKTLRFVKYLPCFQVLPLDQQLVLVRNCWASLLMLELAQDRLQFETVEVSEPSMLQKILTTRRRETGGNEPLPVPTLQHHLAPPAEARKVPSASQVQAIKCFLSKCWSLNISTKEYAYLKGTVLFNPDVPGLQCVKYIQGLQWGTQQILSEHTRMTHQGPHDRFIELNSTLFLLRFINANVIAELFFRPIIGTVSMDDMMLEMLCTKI

[15] = target: T2, Carboxy-terminal domain RNA polymerase II polypeptide A small phosphatase 1 (Homo sapiens, UniProt Q9GZU7); experiment: inhibitors of CTDSP1, concentration-response testing, biochemical assay, absorbance-based, actives from ultra-high-throughput screening (AID 540297); format: functional
T2 sequence (Q9GZU7 whole entry): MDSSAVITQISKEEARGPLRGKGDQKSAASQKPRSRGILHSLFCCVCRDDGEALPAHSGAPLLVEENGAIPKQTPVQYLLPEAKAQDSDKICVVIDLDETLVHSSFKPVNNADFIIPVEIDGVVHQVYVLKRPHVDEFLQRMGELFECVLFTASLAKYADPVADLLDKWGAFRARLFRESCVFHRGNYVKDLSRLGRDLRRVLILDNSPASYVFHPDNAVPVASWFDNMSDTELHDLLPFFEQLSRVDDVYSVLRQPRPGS

[16] = target: T3, Mitochondrial peptide methionine sulfoxide reductase (Bos taurus, UniProt P54149); format: functional;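 also: absorbance read-out, biochemical high-throughput dose-response screen for MsrA inhibitors, confirmatory; recombinant bovine MsrA coupled to E. coli TrxB with NADPH and selenocystamine; potency is for inhibitors of MsrA activity on DMSO substrate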
T3 sequence (P54149 whole entry): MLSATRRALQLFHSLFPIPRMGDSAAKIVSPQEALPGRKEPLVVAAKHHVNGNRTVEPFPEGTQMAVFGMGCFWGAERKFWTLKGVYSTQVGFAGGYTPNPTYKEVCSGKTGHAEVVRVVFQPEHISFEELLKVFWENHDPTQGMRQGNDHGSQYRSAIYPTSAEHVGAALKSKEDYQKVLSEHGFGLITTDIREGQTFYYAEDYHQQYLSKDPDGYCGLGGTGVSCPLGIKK

[17] = target: T4, Corticotropin-releasing factor receptor 2/Corticotropin-releasing factor-binding protein (Homo sapiens, UniProt P24387+Q13324); experiment: Dose Response confirmation of uHTS hits for small molecule antagonists of the CRF-binding protein and CRF-R2 receptor complex.; format: functional; settings: read-out: IC50_Mean
T4 sequence (Q13324 whole entry): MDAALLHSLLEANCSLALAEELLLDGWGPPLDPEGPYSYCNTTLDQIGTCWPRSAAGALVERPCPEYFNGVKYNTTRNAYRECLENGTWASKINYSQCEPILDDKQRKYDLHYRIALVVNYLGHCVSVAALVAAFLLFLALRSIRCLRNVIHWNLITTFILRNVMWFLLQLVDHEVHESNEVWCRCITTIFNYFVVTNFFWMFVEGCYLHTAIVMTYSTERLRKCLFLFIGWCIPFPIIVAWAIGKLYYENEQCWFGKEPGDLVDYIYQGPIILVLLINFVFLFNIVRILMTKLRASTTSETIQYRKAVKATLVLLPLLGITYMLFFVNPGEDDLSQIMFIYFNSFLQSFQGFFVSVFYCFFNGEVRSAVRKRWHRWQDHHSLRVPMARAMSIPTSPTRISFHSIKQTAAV
T4 sequence (P24387 whole entry): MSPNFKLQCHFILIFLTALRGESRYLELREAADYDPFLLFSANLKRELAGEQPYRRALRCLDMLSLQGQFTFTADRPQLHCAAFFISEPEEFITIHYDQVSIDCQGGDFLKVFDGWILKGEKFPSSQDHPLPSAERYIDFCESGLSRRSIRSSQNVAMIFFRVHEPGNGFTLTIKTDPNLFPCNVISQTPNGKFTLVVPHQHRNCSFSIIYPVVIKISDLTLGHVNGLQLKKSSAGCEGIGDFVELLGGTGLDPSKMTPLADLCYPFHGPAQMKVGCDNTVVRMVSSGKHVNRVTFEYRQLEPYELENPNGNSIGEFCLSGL

[18] = target: T4, Corticotropin-releasing factor receptor 2/Corticotropin-releasing factor-binding protein; experiment: activators of CRF receptor 2 with binding protein – uHTS hits, confirmation (AID 602473); format: functional; settings: read-out: EC50_Mean
[19] = target: Voltage-gated inwardly rectifying potassium channel KCNH2 (Homo sapiens, UniProt Q12809); settings: Potency;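 also: confirmatory quantitative high-throughput screen measuring inhibition of hERG channel activity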
Sequence of Voltage-gated inwardly rectifying potassium channel KCNH2 (Q12809 whole entry): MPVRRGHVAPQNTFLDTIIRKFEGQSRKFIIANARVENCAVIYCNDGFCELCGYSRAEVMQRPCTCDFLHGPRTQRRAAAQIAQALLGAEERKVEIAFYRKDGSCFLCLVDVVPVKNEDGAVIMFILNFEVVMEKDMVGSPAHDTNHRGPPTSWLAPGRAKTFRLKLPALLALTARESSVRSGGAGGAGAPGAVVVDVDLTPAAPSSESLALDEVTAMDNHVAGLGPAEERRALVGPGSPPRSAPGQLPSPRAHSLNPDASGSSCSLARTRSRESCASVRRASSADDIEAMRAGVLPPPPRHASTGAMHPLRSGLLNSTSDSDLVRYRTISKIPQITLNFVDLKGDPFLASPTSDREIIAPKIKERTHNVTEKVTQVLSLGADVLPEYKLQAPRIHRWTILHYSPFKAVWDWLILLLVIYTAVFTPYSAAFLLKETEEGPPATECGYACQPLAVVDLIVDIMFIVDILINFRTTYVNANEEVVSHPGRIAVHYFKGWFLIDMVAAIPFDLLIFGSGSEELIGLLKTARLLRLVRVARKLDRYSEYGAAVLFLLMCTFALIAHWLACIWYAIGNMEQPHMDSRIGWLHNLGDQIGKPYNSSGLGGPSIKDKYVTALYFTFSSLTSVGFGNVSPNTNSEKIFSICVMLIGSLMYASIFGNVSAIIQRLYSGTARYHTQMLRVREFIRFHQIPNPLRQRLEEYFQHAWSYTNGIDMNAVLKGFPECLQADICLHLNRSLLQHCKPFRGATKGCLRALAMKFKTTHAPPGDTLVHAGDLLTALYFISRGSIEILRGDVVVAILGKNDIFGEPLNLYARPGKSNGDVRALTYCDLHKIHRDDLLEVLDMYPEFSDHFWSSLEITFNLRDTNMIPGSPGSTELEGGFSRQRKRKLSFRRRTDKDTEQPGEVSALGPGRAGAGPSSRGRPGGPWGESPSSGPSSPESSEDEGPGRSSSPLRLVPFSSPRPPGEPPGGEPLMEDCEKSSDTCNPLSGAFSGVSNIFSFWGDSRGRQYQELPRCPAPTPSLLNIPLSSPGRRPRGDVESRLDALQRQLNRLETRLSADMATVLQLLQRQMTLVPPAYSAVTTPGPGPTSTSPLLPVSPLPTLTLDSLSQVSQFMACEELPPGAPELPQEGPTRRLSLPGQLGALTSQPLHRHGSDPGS

[20] = target: T5, CAAX prenyl protease 1 (Saccharomyces cerevisiae S288c, UniProt P47154); experiment: Ste24 protease inhibitors, dose response, biochemical, S. cerevisiae, plate reader, cherry-pick (AID 488815)
T5 sequence (P47154 whole entry): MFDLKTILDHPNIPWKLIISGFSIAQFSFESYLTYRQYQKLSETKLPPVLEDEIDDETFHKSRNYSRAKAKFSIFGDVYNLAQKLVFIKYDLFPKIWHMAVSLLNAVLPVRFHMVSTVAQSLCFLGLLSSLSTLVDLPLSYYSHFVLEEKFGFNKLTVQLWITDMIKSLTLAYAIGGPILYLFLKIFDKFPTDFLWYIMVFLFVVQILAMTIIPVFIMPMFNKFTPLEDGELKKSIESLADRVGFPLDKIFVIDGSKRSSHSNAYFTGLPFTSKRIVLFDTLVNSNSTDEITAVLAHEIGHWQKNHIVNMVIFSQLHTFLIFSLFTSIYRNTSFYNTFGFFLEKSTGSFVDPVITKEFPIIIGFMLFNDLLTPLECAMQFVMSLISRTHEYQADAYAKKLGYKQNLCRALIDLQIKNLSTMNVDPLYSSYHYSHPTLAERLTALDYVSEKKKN

[21] = target: T6, CAAX prenyl protease 2 (Homo sapiens, UniProt Q9Y256); experiment: human Rce1 protease inhibitors, dose response, biochemical, yeast membranes, quenched-peptide fluorescence, cherry-pick (AID 588849)
T6 sequence (Q9Y256 whole entry): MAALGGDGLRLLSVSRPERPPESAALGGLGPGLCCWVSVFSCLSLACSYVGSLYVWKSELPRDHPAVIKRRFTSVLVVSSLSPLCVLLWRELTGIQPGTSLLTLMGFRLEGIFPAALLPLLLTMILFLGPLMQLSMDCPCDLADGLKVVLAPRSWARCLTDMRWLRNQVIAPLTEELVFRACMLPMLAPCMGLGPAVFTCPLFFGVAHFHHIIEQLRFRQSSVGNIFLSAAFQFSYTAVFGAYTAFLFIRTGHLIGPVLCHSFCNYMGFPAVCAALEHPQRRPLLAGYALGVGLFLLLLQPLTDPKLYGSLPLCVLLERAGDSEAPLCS

[22] = target: T7, Rac GTPase-activating protein 1 (Homo sapiens, UniProt Q9H0H5); experiment: MgcRacGAP GTPase-activating activity inhibitors, confirmation, biochemical, ADP Hunter fluorescence, primary and confirmatory (AID 624330); format: functional
T7 sequence (Q9H0H5 whole entry): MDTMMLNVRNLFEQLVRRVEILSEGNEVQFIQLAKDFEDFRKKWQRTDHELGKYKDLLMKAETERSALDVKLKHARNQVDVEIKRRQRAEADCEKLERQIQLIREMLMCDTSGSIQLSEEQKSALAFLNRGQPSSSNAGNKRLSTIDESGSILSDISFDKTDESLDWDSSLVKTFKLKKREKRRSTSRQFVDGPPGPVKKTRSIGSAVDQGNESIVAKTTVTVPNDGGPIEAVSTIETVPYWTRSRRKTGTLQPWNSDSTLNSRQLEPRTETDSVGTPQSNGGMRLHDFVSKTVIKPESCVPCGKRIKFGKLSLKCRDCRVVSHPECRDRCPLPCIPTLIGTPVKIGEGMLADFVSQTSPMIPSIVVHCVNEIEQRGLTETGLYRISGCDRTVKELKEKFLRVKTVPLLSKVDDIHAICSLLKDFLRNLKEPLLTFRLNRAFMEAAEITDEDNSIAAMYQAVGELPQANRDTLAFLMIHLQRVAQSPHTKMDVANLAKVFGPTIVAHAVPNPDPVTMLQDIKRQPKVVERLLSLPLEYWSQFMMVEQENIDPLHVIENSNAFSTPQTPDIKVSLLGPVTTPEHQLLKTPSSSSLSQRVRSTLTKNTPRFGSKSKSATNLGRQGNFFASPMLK

[23] = A Cell Based Secondary Assay To Explore Cytotoxicity of Compounds that Sensitize Mycobacterium Tuberculosis to Beta-Lactam Antibiotics.; format: functional

## CC(Oc1ccc2ccccc2c1)C(=O)NNC(=S)NC(=O)c1ccco1 (stereo unspecified)
[1]
  EC50: 74 nM (active)
[2]
  CC50: 39.5 µM (active)
[3]
  EC50: 432 nM (active)
[4]
  CC50: 27.3 µM (active)
[5]
  CC50: > 20 µM (active)
[6]
  IC50: 6.03 µM (active)
[7]
  IC50: 24.6 µM (active)
[8]
  CC50: > 25 µM (active)

## COCCNc1nc2c(c(=O)n(C)c(=O)n2C)n1Cc1cccc(C)c1
[9]
  IC50: 1.95 µM (active)

## COc1ccccc1NC(=O)CSc1ccc(-c2ccc(-n3cccn3)cc2)nn1
[10]
  IC50: 15.7 µM (active)
[11]
  IC50: > 100 µM (inactive)
[12]
  IC50: > 100 µM (inactive)

## O=C(Nc1nc2ccsc2c(=O)s1)c1ccc(F)cc1Cl
[13]
  IC50: > 67.5 µM (inactive)
[14]
  IC50: > 67.5 µM (inactive)
[15]
  IC50: 31.7 µM (active)

## C/C(=N\Nc1ccc([N+](=O)[O-])cc1[N+](=O)[O-])c1cccnc1
[16]
  IC50: 155 µM (inactive)

## Cc1ccc(C)c(N2CCN(c3ncnc4c3cnn4-c3ccccc3)CC2)c1
[7]
  IC50: > 25 µM (active)
[8]
  CC50: > 25 µM (active)

## CC1(C)CC(NCCC(c2ccccc2)c2ccco2)CCO1 (stereo unspecified)
[13]
  IC50: > 67.5 µM (inactive)
[14]
  IC50: > 67.5 µM (inactive)
[17]
  IC50: > 47.1 µM (inactive)
[18]
  EC50: > 53 µM (inactive)

## COC(=O)[C@H](NC(=O)c1cc(-c2ccccc2)nc2ccccc12)c1ccccc1
[19]
  AC50: 0.794 µM (inconclusive)

## O=C(COc1ccc(Cl)cc1Cl)OCC(=O)N1CCCc2ccccc21
[13]
  IC50: > 67.5 µM (inactive)
[14]
  IC50: > 67.5 µM (inactive)

## O=[N+]([O-])c1ccc(N/N=C\c2cccn2-c2ccccc2)nc1
[10]
  IC50: 23.5 µM (active)
[11]
  IC50: > 100 µM (inactive)
[12]
  IC50: 29.5 µM (active)

## COc1ccc(Cn2c(N)c(S(=O)(=O)c3cccs3)c3nc4ccccc4nc32)cc1
[20]
  AC50: 2.79 µM (active)
[21]
  AC50: 4.33 µM (active)

## COc1cc2c(cc1OC)-c1c/c(=N\c3c(C)cc(C)cc3C)n(C)c(=O)n1CC2 [TREQUINSIN HYDROCHLORIDE]
[19]
  AC50: 35.5 µM (inconclusive)

## CN1C(=O)/C(=C/C=C2/CCCN2C)N(C)C1=S
[10]
  IC50: 8.15 µM (active)
[11]
  IC50: > 100 µM (inactive)
[12]
  IC50: 29 µM (active)
[22]
  IC50: 24.2 µM (active)

## FC(F)Oc1ccc(-[n+]2cc(-c3ccccc3)n3c2CCCCC3)cc1
[9]
  IC50: 12.5 µM (active)

## CC(C)(CO)Cc1cc(C(C)(C)C)c(O)c(C(C)(C)C)c1
[19]
  AC50: 35.5 µM (inconclusive)

## O=C(O)CC(NNC(=O)c1ccccc1)C(=O)Nc1ccc([N+](=O)[O-])cc1 (stereo unspecified)
[13]
  IC50: > 67.5 µM (inactive)
[14]
  IC50: > 67.5 µM (inactive)

## CCNc1nc(CN2CCCCC2)nc2scc(-c3ccccc3)c12
[23]
  CC50: > 40 µM (active)
[9]
  IC50: 5.03 µM (active)
